Assay results taken from patent US12310946B2, “Pharmaceutical composition for oral administration of edaravone and method of administering same” (MITSUBISHI TANABE PHARMA CORPORATION, priority 2020, dated 2025).

Columns and labels:
[1] = Clinical study #9: PK of edaravone oral formulation (formula #3) in healthy adults (reference group), oral, fasted; assay type: in vivo; details: both sexes, human, plasma, 105 mg oral, healthy (n = 42), mean, before weight correction
Experimental: On the other hand, a clinical study #9 shown below was conducted in healthy adult male and female subjects (42 in total) (the reference group). That is, the edaravone oral formulation of the formula #3 was administered orally to the reference group in fasted conditions after a lapse of 10 hours or longer. Then, blood samples were each collected before the administration, and 5 minutes, 15 minutes, 30 minutes, 45 minutes, 1 hour, 1.5 hours, 2 hours, 4 hours, 6 hours, 8 hours, 10 hours, 12 hours, 24 hours, 36 hours, and 48 hours after the administration, and the concentrations of unchanged edaravone in plasma were measured.
The resulting PK parameters were corrected for body weight of each subject adjusted to 70 kg by a proportional calculation for each of the patient group and the reference group. In addition, the results of the PK parameters after correction of the patient group are shown as box-whisker plots of #9 (the reference group), and individual plots of #5 (the patient group) and #9 (the reference group) in FIG. 3. In FIG. 3, X represents a mean value. […] Thus, the difference in the Cmax and the difference in the AUC before weight correction between the patient group and the reference group seen in Table 9 below are considered due to the difference in body weight between the patient group and the reference group, and the difference in the Cmax and the difference in the AUC after weight correction between the patient group and the reference group observed in FIG. 3 are each considered to be within the range of error.

[2] = Clinical study #1: PK of edaravone oral formulation (formula #1), fasted vs 30 min after high-fat meal; assay type: in vivo; details: male, human, plasma, 200 mg, 200 mg oral
Experimental: Effects of meal consumption before administration of the edaravone oral formulation on the pharmacokinetics of edaravone were evaluated. Specifically, clinical studies #1, #2, and #3 described below were conducted on separate days in Japanese healthy adult male subjects. In each of clinical studies #1, #2, and #3, one dose each of edaravone oral formulations (edaravone suspensions) of formulas #1, #2, and #3 shown in Table 1 below were used respectively and administered orally once during the study period. For each clinical study, a reference study was conducted (reference example), in which the edaravone oral formulation was administered in fasted conditions as described below, and in each clinical study and the corresponding reference study, the edaravone oral formulation was each administered to the same subjects.
For the high-fat meal, a meal with total calories per meal of 800 to 1000 kilocalories and calorie intake from lipid of 50% was used. For the standard meal, a meal with total calories per meal of 400 to 500 kilocalories and calorie intake from lipid of 25% was used. For the light meal, a liquid-type nutritional supplement with total calories per meal of 250 kilocalories (enteral nutritional supplement: Ensure Liquid (trade name)) was used.
The edaravone oral formulation (formula #1) was administered orally to the subjects 30 minutes after high-fat meal consumption. Blood samples were each collected before the administration, and 15 minutes, 30 minutes, 1 hour, 1.5 hours, 2 hours, 4 hours, 6 hours, 8 hours, 12 hours, 24 hours, 36 hours, and 48 hours after the administration, and the concentrations of unchanged edaravone in plasma were measured. On the other hand, as a reference example, the edaravone oral formulation was administered orally to the same subjects in fasted conditions, blood samples were collected, and the concentrations of unchanged edaravone in plasma were measured in the same manner. For the administration in fasted conditions, the edaravone oral formulation was administered orally after a lapse of 10 hours or more from the previous meal consumption (the same applies hereinafter). None of the subjects consumed a next meal until the blood sample collection 4 hours after the administration was completed.

[3] = system: P-gp and BCRP; assay: Caco-2 transcellular transport study, efflux ratio with and without P-gp and BCRP inhibitors; assay type: in vitro ADME; details: human, Caco-2
Experimental: (§1) Cell membrane permeability is known to be constant regardless of the concentration of the substance when no transporter is involved. The control compounds, propranolol and mannitol, are not substrates for transporters P-gp and BCRP expressed in Caco-2 cells, and thus the values of the permeability coefficient are not considered to change depending on the concentrations used in the test. Thus, further, the following study was conducted to confirm that edaravone is not a substrate for transporters P-gp and BCRP as well.
(§2) That is, Caco-2 cells were seeded on a 96-well plate, cultured at 37° C. for 10 to 11 days in a CO2 incubator, and then a transcellular transport study was conducted. Then, a […] was calculated. The efflux ratio was calculated as the ratio of the mean values of Papp calculated from three measurements.

[4] = system: transporters P-gp and BCRP expressed in Caco-2 cells; assay: as above; assay type: in vitro ADME; details: Caco-2 cells
Experimental: as §1, §2

[5] = Clinical studies #7 and #8: edaravone oral dose vs AUC (4-parameter logistic model) compared with 60-mg intravenous administration; assay type: in vivo; details: human, plasma; approved 60-mg edaravone intravenous administration formulation (60 mg/60 min)
Experimental: Specifically, clinical studies #7 and #8 described below were conducted in healthy adult male subjects for each subject group. In clinical studies #7 and #8, one dose each of edaravone oral formulations (edaravone suspensions) of formulas #7 and #8 shown in Table 11 below were used respectively and administered orally once during the study period.
Any of the edaravone oral formulations (formula #7) with an edaravone content of 30 mg, 60 mg, 120 mg, 200 mg, or 300 mg was administered orally to subjects in fasted conditions after a lapse of 10 hours or longer from consumption of a meal. The edaravone oral formulations with each content were each administered orally to 6 subjects. Blood samples were each collected before the administration, and 15 minutes, 30 minutes, 1 hour, 1.5 hours, 2 hours, 4 hours, 6 hours, 8 hours, 12 hours, 24 hours, 36 hours, and 48 hours after the administration, the concentrations of unchanged edaravone were measured, and the AUCs were calculated.
The edaravone oral formulations (formula #8) with an edaravone content of 100 mg was administered orally to 9 subjects in fasted conditions after a lapse of 10 hours or longer from consumption of a meal. […]

[6] = formula #1, 30 min after high-fat meal, mean (n = 5)
[7] = formula #1, fasted, mean (n = 6)

AUC(0-inf) [1]: 1.76 µg·h/mL | Cmax [1]: 1.66 µg/mL | Tmax [1]: 0.44 h | AUC(0-inf) [2, 6]: 2.47 µg·h/mL | Cmax [2, 6]: 0.899 µg/mL | Tmax [2, 6]: 1.35 h | half-life [2, 6]: 5.23 h | AUC(0-inf) [2, 7]: 6.31 µg·h/mL | Cmax [2, 7]: 4.93 µg/mL | Tmax [2, 7]: 0.42 h | half-life [2, 7]: 9.05 h | efflux ratio at 10 μmol/L ([3]; 10 μmol/L, no inhibitor): 0.9 | efflux ratio ([3]; in presence or absence of inhibitors): ≤ 2 | substrate for P-gp and BCRP [4]: not a substrate for P-gp and BCRP | AUC [5]: 1.74 µg·h/mL
Structure (SMILES): CC1=NN(c2ccccc2)C(=O)C1 [Edaravone, 3-methyl-1-phenyl-2-pyrazolin-5-one]
